Where two headings read alike, the source gives them in different places.
Key:
[1] = tested on: Ctenocephalides felis; details: for EC50 (ppm) Total amount of actives (ppm): total of dinotefuran and fipronil; for EC50 (ppm) Dinotefuran: amount of dinotefuran
Description: Insecticidal activity of dinotefuran, fipronil and dinotefuran/fipronil combinations at different ratios was evaluated using an in vitro coated-vial bioassay. Serial dilutions of test compounds, individually or in combination, were conducted with an acetone/triton solution+0.5% DMSO from a dinotefuran starting dose at 100 ppm and from a fipronil starting dose at 50 ppm. Vials were treated with dinotefuran, fipronil, dinotefuran/fipronil (tested at 6 ratios). Vials were capped and allowed to dry for at least 4 hours before the addition of 10 newly emerged (0-7 days old) unfed adult fleas (Ctenocephalides felis). Flea susceptibility was assessed at 6, 24 and 48 hours post-exposure by evaluating mortality. The EC50 and EC90 values were calculated based on Median-Effect Principle (Chu, 2006. Theoretical Basis, Experimental design, and Computerized Simulation of Synergism and Antagonism in drug Combination studies. Pharmacological reviews, 58(3):621-681) using COMPUSYN (version 1.0). EC50 and EC90 are defined as the amount of drugs, which causes respectively a 50% and 90% flea mortality. Combination indexes (CI) at EC50 and EC90 were calculated to characterize the interaction of each combination: synergism (CI<1), antagonism (CI>1) and additive effect (CI=1) and a combination index (CI) values were calculated at 48 hours of exposure to assess the potential for synergistic activity (Chou, Pharmacol. Rev. 2006, 58, 621-681; Chou, Drug combination studies and their synergy quantification using the Chou-Talalay method, Cancer. Res., 2010, 70: 440-446).

[2] = tested on: Rhipicephalus sanguineus; test: in vitro coated-vial bioassay, activity against ticks; details: for mortality at 0.206 ppm / mortality at 0.617 ppm / mortality at 1.852 ppm / mortality at 5.556 ppm / mortality at 16.667 ppm / mortality at 50 ppm: Rhipicephalus sanguineus; for mortality at 0.206 ppm: D 0.000 ppm + F 0.206 ppm; for mortality at 0.617 ppm: D 0.000 ppm + F 0.617 ppm; for mortality at 1.852 ppm: D 0.000 ppm + F 1.852 ppm; for mortality at 5.556 ppm: D 0.000 ppm + F 5.556 ppm; for mortality at 16.667 ppm: D 0.000 ppm + F 16.667 ppm; for mortality at 50 ppm: D 0.000 ppm + F 50.000 ppm; for EC50 (ppm) Total amount of actives (ppm): total of dinotefuran and fipronil
Description: Tick susceptibility was assessed at 12, 24 and 48 hours post-exposure by evaluating mortality.

[3] = 12 H, read-out: Mortality (%) 12 H
[4] = 24 H, read-out: Mortality (%) 24 H
[5] = 48 H, read-out: Mortality (%) 48 H

SMILES: N#Cc1nn(-c2c(Cl)cc(C(F)(F)F)cc2Cl)c(N)c1[S+]([O-])C(F)(F)F (racemic) [D:F = 0:1, (RS)-5-amino-1-[2,6-dichloro-4-(trifluoromethyl)phenyl]-4-(trifluoromethylsulfinyl)-1H-pyrazole-3-carbonitrile]
- EC50 (ppm) Fiproml ([1]; Table 2, fleas, amount of fipronil, alone or in the combination): 13.83 ppm
- EC50 (ppm) Total amount of actives (ppm) ([1]; Table 2, fleas): 13.83 ppm
- mortality at 0.206 ppm [2, 3]: 0%
- mortality at 0.206 ppm [2, 4]: 0%
- mortality at 0.206 ppm [2, 5]: 0%
- mortality at 0.617 ppm [2, 3]: 0%
- mortality at 0.617 ppm [2, 4]: 0%
- mortality at 0.617 ppm [2, 5]: 10%
- mortality at 1.852 ppm [2, 3]: 0%
- mortality at 1.852 ppm [2, 4]: 0%
- mortality at 1.852 ppm [2, 5]: 0%
- mortality at 5.556 ppm [2, 3]: 0%
- mortality at 5.556 ppm [2, 4]: 20%
- mortality at 5.556 ppm [2, 5]: 60%
- mortality at 16.667 ppm [2, 3]: 60%
- mortality at 16.667 ppm [2, 4]: 80%
- mortality at 16.667 ppm [2, 5]: 100%
- mortality at 50 ppm [2, 3]: 60%
- mortality at 50 ppm [2, 4]: 100%
- mortality at 50 ppm [2, 5]: 100%
- EC50 (ppm) Fipronil ([2]; Table 5, ticks, amount of fipronil): 3.77 ppm
- EC50 (ppm) Total amount of actives (ppm) ([2]; Table 5, ticks): 3.77 ppm

SMILES: CN/C(=N\[N+](=O)[O-])NCC1CCOC1 (stereo not drawn) [D:F = 1:0, 2-methyl-l-nitro-3-[(tetrahydro-3-furanyl)methyl] guanidine]
- activity against fleas (in words) [1]: more potent than fipronil
- Mortality (%) 6 H ([1]; D 0.412 ppm + F 0.000 ppm): 0%
- Mortality (%) 24 H ([1]; D 0.412 ppm + F 0.000 ppm): 10%
- Mortality (%) 48 H ([1]; D 0.412 ppm + F 0.000 ppm): 0%
- Mortality (%) 6 H ([1]; D 1.235 ppm + F 0.000 ppm): 0%
- Mortality (%) 24 H ([1]; D 1.235 ppm + F 0.000 ppm): 10%
- Mortality (%) 48 H ([1]; D 1.235 ppm + F 0.000 ppm): 20%
- Mortality (%) 6 H ([1]; D 3.704 ppm + F 0.000 ppm): 0%
- Mortality (%) 24 H ([1]; D 3.704 ppm + F 0.000 ppm): 20%
- Mortality (%) 48 H ([1]; D 3.704 ppm + F 0.000 ppm): 50%
- Mortality (%) 6 H ([1]; D 11.111 ppm + F 0.000 ppm): 10%
- Mortality (%) 24 H ([1]; D 11.111 ppm + F 0.000 ppm): 30%
- Mortality (%) 48 H ([1]; D 11.111 ppm + F 0.000 ppm): 60%
- Mortality (%) 6 H ([1]; D 33.333 ppm + F 0.000 ppm): 0%
- Mortality (%) 24 H ([1]; D 33.333 ppm + F 0.000 ppm): 10%
- Mortality (%) 48 H ([1]; D 33.333 ppm + F 0.000 ppm): 80%
- Mortality (%) 6 H ([1]; D 100.000 ppm + F 0.000 ppm): 40%
- Mortality (%) 24 H ([1]; D 100.000 ppm + F 0.000 ppm): 80%
- Mortality (%) 48 H ([1]; D 100.000 ppm + F 0.000 ppm): 90%
- EC50 (ppm) Dinotefuran ([1]; Table 2, fleas, alone or in the combination): 8.05 ppm
- EC50 (ppm) Total amount of actives (ppm) ([1]; Table 2, fleas): 8.05 ppm
- EC50 (ppm) Dinotefuran ([1]; Table 3 (head EC50, text says EC90), fleas): 50.87 ppm
- acaricidal activity against ticks (in words) [2]: not active
- Mortality (%) 12 H ([2]; D 0.412 ppm + F 0.000 ppm, 12 H): 0%
- Mortality (%) 24 H ([2]; D 0.412 ppm + F 0.000 ppm, 24 H): 0%
- Mortality (%) 48 H ([2]; D 0.412 ppm + F 0.000 ppm, 48 H): 0%
- Mortality (%) 12 H ([2]; D 1.235 ppm + F 0.000 ppm, 12 H): 0%
- Mortality (%) 24 H ([2]; D 1.235 ppm + F 0.000 ppm, 24 H): 0%
- Mortality (%) 48 H ([2]; D 1.235 ppm + F 0.000 ppm, 48 H): 0%
- Mortality (%) 12 H ([2]; D 3.704 ppm + F 0.000 ppm, 12 H): 0%
- Mortality (%) 24 H ([2]; D 3.704 ppm + F 0.000 ppm, 24 H): 0%
- Mortality (%) 48 H ([2]; D 3.704 ppm + F 0.000 ppm, 48 H): 0%
- Mortality (%) 12 H ([2]; D 11.111 ppm + F 0.000 ppm, 12 H): 0%
- Mortality (%) 24 H ([2]; D 11.111 ppm + F 0.000 ppm, 24 H): 0%
- Mortality (%) 48 H ([2]; D 11.111 ppm + F 0.000 ppm, 48 H): 0%
- Mortality (%) 12 H ([2]; D 33.333 ppm + F 0.000 ppm, 12 H): 0%
- Mortality (%) 24 H ([2]; D 33.333 ppm + F 0.000 ppm, 24 H): 0%
- Mortality (%) 48 H ([2]; D 33.333 ppm + F 0.000 ppm, 48 H): 0%
- Mortality (%) 12 H ([2]; D 100.000 ppm + F 0.000 ppm, 12 H): 0%
- Mortality (%) 24 H ([2]; D 100.000 ppm + F 0.000 ppm, 24 H): 0%
- Mortality (%) 48 H ([2]; D 100.000 ppm + F 0.000 ppm, 48 H): 0%
- EC50 (ppm) Dinotefuran ([2]; Table 5, ticks, amount of dinotefuran): >100 ppm
- EC50 (ppm) Total amount of actives (ppm) ([2]; Table 5, ticks): 100 ppm

— US20180213790A1, “COMPOSITIONS AND USES THEREOF FOR CONTROLLING ECTOPARASITES IN NON-HUMAN MAMMALS” (priority 2015, published 2018)
